Article PMC8290231 (Cancer Medicine, 2021)
Like-named read-outs stand apart in the source and are kept apart here.

Experiments:
[1] = system: Ba/F3‐FGFR1‐V561M xenograft; test: Mouse xenograft tumor model; assay type: in vivo, CB17‐SCID mice; conditions: 20 mg/kg, p.o., q2d (b60 prints Bid)
Excerpt: All animal studies were approved by the Institutional Animal Care and Use Committee. Male CB17‐SCID mice were purchased from Vital River Laboratory Animal Technology Inc. (Beijing, China). The right flanks of SCID mice were subcutaneously injected with 2 x 10^6 Ba/F3‐FGFR1, Ba/F3‐FGFR1‐V561F, or Ba/F3‐FGFR1‐V561M cells, respectively. When the average tumor volume reached 100–200 mm^3, mice bearing tumor were randomly divided into groups and treated with compounds or vehicle. All the compounds were suspended in 0.5% CMC‐Na aqueous solution. […] The body weight and tumor volume of animals were measured once every 2 days. Tumor volumes were calculated as L×W×W/2, where L and W are the length and width of the tumor, respectively. At the experiment terminal, tumor tissues were dissected, paraffin embedded, and sectioned for hematoxylin and eosin (H&E), immunohistochemistry (IHC), and TUNEL analysis.

[2] = system: Ba/F3(+IL‐3); test: CCK-8 proliferation assay in parental Ba/F3 cells; assay type: cell-based; conditions: Mus musculus, read-out: IC50 (μΜ) Ba/F3(+IL‐3)
Procedure: (§1) The Ba/F3 cell lines stably expressing FGFR1, FGFR1‐V561M, FGFR1‐V561F, FGFR1‐K656N, and FGFR1‐K656E were self‐established through electroporation pCDNA3.1‐TEL plasmids using the Amaxa Cell Line Nucleofector Kit V (Lonza, Cologne, Germany). Stable cell lines were selected by G418 (Merck, USA) and then withdrawal of IL‐3 (R&D). […] Parental Ba/F3 cells were maintained in RPMI 1640 supplemented with 10% FBS, 100 U/ml of penicillin, […] of streptomycin, and 10 ng/ml of IL‐3, while all Ba/F3 stable cell lines were cultured in the same medium without IL‐3.
(§2) Cells were seeded in 96‐well plate in complete medium (1000–6000 cells/well) and cultured for overnight. Then the cells were exposed to gradient concentrations (0.0005–10 μM) of compounds. Cell proliferation was analyzed by Cell Counting Kit 8 (CK04, Dojindo Laboratories, Japan) after co‐incubation for a further 72 h. IC50 values were calculated by fitting of concentration–response curves using GraphPad Prism 8.01 software. Each assay was repeated at least three times.
(§3) There is, however, no commercially available FGFR1 mutant kinase to validate this. Therefore, we constructed Ba/F3 model cells stably expressing FGFR1‐WT, K656E, K656N, V561M, and V561F mutations.

[3] = system: FGFR1‐V561F; test: Cellular thermal shift assay (CETSA) in Ba/F3‐FGFR1‐V561F cells; assay type: binding; conditions: 100 nM, 38.0 to 57.8℃
Procedure: Pairs consisting of one experimental aliquot and one DMSO aliquot were heated from 38.0 to 57.8℃ for 3 min. Then, the samples were exposed to liquid nitrogen for 10 min, and then placed in a water bath at 37℃ for 10 min. After three freeze–thaw cycles, cell lysates were centrifuged at 12000 rpm at 4℃ for 10 min, and then boiled for 15 min. The soluble supernatant was used for WB analysis.
Drug‐treated cells were heated at gradient temperature from 38℃ to 57.8℃ for 3 min and then lysed, centrifuged to separate the soluble fractions from precipitates. The soluble fractions were analyzed by immunoblotting. Relative band intensities were plotted as a function of temperature followed a sigmoidal trend.

[4] = system: MDA‐MB‐231; test: CCK-8 cell proliferation assay; assay type: cell-based; conditions: CCK-8, 72 h
Procedure: (§4) The base medium for MDA‐MB‐453 cell line is DMEM medium (CORNING, USA). All other cell lines were cultured in RPMI‐1640 medium supplemented with 10% FBS, 100 U/ml of penicillin, and […] of streptomycin in 5% CO2 at 37℃. The cells in the logarithmic growth phase were used for the experiments.
as §2
(§5) The expression and activation levels of FGFR1–4 in these cells were determined via western blot experiments (Figure S1).

[5] = system: RT112; test: CCK-8 cell proliferation assay; assay type: cell-based; conditions: Homo sapiens, RT-112; FGFR3‐TACC3; CCK-8, 72 h; read-out: antiproliferative IC50, RT112
Procedure: as §4, §2, §5

[6] = system: MKN‐1; test: CCK-8 cell proliferation assay; assay type: cell-based; conditions: Homo sapiens, MKN-1; negative control; CCK-8, 72 h; read-out: antiproliferative IC50, MKN‐1
Procedure: as §4, §2, §5

[7] = system: NCI‐H716; test: CCK-8 cell proliferation assay; assay type: cell-based; conditions: Homo sapiens, NCI-H716; FGFR2 amplification; CCK-8, 72 h; read-out: antiproliferative IC50, NCI‐H716
Procedure: as §4, §2, §5

[8] = system: H1581; test: CCK-8 cell proliferation assay; assay type: cell-based; conditions: Homo sapiens, NCI-H1581; FGFR1 amplification; CCK-8, 72 h; read-out: antiproliferative IC50, H1581
Procedure: as §4, §2, §5

[9] = system: KATOIII; test: CCK-8 cell proliferation assay; assay type: cell-based; conditions: Homo sapiens, KATO III; FGFR2 amplification; CCK-8, 72 h; read-out: antiproliferative IC50, KATOIII
Procedure: as §4, §2, §5

[10] = system: pAKT in SNU‐16; test: Western blot of pAKT; assay type: cell-based; conditions: SNU‐16, FGFR2 overexpressed, 3.7 to 300 nM
Procedure: (§6) Cells were treated with different concentrations of compound or DMSO for indicated time. Then, cells were lysed with 1 × SDS sample lysis buffer (recommended by CST). […] After blocking with 5% BSA in TBST solution (0.5% Tween‐20) at room temperature for 4 hrs, the membranes were incubated with the corresponding primary antibody (1:2000–1:200) at 4℃ overnight. After washing with TBST for 3–5 times, the HRP‐conjugated secondary antibodies were incubated for 2 hrs. The protein signals were detected with Amersham Imager 600 system (GE, Boston, MA, USA) using an ECL western blotting detection kit (Thermo Fisher Scientific, Waltham, MA, USA).

[11] = system: pAKT in NCI‐H716; test: Western blot of pAKT; assay type: cell-based; conditions: NCI‐H716, FGFR2 overexpressed, 3.7 to 300 nM
Procedure: as §6

[12] = biological target: FGFR3 (Homo sapiens, UniProt P22607); test: FRET-based Z′-Lyte kinase assay; assay type: biochemical
FGFR3, sequence (P22607 23-806): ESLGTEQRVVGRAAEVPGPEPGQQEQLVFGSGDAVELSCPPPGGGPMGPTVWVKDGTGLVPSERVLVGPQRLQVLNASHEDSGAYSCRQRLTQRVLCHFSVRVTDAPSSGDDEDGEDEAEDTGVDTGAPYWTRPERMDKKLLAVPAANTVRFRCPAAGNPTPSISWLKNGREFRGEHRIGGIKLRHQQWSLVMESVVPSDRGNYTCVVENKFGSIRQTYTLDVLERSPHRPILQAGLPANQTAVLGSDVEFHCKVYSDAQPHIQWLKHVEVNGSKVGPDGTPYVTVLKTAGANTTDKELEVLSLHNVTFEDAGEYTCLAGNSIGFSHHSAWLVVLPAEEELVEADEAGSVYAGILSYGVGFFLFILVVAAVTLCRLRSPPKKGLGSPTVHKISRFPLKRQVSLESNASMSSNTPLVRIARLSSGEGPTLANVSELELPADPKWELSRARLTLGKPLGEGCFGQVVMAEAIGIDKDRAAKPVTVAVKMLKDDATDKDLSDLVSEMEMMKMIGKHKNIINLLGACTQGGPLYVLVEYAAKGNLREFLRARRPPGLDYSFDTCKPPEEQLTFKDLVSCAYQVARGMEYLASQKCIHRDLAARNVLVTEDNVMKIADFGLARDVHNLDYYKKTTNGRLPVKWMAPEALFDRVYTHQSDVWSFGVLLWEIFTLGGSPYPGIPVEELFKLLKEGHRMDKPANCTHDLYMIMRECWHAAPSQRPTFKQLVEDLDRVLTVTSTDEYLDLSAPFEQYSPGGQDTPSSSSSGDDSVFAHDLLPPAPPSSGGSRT

[13] = system: Ba/F3 stable cells (FGFR1‐V561F/M and other mutant); test: CCK-8 proliferation, Ba/F3 stable cells with FGFR1 and mutants (summary); assay type: cell-based; conditions: Mus musculus, BaF3; range over Ba/F3 stable cells
Procedure: as §1, §2, §3

[14] = biological target: FGFR2 (Homo sapiens, UniProt P21802); test: KINOMEscan binding affinity assay
FGFR2, sequence (P21802 22-821): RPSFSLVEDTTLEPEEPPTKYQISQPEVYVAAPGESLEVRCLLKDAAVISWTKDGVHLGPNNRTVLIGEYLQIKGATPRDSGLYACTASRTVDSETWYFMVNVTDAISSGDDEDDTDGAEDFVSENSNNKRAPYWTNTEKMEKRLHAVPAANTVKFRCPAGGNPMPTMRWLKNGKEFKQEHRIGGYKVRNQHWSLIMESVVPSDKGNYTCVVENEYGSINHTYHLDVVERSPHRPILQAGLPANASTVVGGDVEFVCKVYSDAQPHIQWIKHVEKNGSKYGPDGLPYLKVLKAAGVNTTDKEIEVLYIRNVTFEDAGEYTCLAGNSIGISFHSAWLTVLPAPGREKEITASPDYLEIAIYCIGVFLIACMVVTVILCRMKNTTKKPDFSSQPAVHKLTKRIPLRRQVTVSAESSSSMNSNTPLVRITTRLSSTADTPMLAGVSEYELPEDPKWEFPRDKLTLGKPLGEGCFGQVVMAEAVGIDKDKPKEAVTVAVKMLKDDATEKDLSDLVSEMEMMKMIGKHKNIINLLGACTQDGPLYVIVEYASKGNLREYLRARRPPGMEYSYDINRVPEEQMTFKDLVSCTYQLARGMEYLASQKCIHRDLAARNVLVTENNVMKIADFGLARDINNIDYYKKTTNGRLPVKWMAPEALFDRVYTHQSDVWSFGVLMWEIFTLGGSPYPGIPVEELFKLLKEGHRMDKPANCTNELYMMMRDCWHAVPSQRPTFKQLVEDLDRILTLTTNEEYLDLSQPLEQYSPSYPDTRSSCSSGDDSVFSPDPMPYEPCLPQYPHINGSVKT

[15] = biological target: T1, FGFR2‐N550K (Homo sapiens, UniProt P21802, N549K); test: KINOMEscan binding affinity assay
T1 construct: purchased KINOMEscan™ (commercial assay)
T1 sequence (P21802 22-822 isoform P21802-3 N550K limits assumed): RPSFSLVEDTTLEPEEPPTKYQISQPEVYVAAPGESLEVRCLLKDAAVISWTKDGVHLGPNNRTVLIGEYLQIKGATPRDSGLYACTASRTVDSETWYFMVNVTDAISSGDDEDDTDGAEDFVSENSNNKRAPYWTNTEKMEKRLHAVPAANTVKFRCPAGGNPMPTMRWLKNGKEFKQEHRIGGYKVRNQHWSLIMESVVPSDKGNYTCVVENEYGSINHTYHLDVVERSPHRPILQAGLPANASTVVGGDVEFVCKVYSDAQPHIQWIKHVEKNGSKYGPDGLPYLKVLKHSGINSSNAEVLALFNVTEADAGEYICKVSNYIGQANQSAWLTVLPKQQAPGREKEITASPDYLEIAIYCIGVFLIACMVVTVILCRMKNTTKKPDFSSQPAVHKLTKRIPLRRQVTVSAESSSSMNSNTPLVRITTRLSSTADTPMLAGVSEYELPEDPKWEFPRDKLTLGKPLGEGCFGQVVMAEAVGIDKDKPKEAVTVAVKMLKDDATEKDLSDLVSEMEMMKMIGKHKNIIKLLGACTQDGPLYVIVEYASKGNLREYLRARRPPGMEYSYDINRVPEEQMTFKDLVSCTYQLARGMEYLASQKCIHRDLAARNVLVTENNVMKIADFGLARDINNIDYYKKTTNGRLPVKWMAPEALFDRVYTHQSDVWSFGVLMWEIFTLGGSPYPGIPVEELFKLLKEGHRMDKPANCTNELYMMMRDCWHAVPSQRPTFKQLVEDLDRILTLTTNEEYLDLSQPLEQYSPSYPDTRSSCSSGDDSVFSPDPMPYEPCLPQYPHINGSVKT

[16] = system: Ba/F3‐FGFR1; test: Cell cycle analysis by flow cytometry (propidium iodide); assay type: cell-based; conditions: Ba/F3‐FGFR1, 100 nM, 24 h
Procedure: About 6 × 10^5 cells were re‐suspended in 150 μl of BD Cytofix/Cytoperm buffer solution I for 10 min at room temperature. The cell suspensions were added with BD Cytofix/Cytoperm buffer solution II and incubated with another 10 min at room temperature, and then incubated with 200 μl of propidium iodide buffer (0.1 mg/ml) in the dark for 10 min at 4℃. Assays were performed with a Guava easyCyte flow cytometer (Merck, USA).

[17] = Homo sapiens, MDA-MB-231, 72 h, read-out: antiproliferative IC50, MDA‐MB‐231, negative control

SMILES | tumor growth inhibition (TGI) [1] [%] | IC50 ([2]; BaF3, 72 h) [µM] | thermal stability of FGFR1‐V561F protein (CETSA) [3] | IC50 [4, 17] [nM] | IC50 ([4]; read-out: antiproliferative IC50, MDA‐MB‐231, negative control) [nM] | IC50 [5] [nM] | IC50 [6] [nM] | IC50 [7] [nM] | IC50 [8] [nM] | IC50 [9] [nM] | effect on pAKT [10] | effect on pAKT [11] | IC50 [12] [nM] | EC50 ([12]; Figure 1B curve fit) [nM] | IC50 [13] [nM] | Kd [14] [nM] | Kd [15] [nM] | G0/G1 phase [16] [%] | IC50 ([2]; BaF3, parental cells with IL-3, CCK-8, 72 h) [µM]
Cc1ccc(C(=O)Nc2ccc(CN3CCN(C)CC3)c(C(F)(F)F)c2)cc1C#Cc1cnc2[nH]ncc2c1 [GZD824] | 49.8 | 1.71 ± 0.59 | significantly enhanced | > 1000 | 2000 ± 782 | 91 ± 5.7 | 743 ± 31.8 | 4 ± 0.5 | 10.8 ± 0.8 | 9.8 ± 1.2 | strongly inhibit | strongly inhibit | 8.1 ± 0.15 | 8.2 | 8.1 to 55 | 15.5 ± 3.5 | 17 ± 5.7 | 70.88 | 
CCN1CCN(c2ccc(Nc3cc(N(C)C(=O)Nc4c(Cl)c(OC)cc(OC)c4Cl)ncn3)cc2)CC1 [BGJ398] |  |  |  | > 10000 |  | 233 ± 76.7 | 5110 ± 481 | 4.2 ± 0.8 | 19.4 ± 2.5 | 17.1 ± 2.4 |  |  |  |  |  |  |  |  | 5.66 ± 0.88
